Test results taken from patent publication US4350698A, “Antiallergic imidosulfamides” (SmithKline Corporation, priority 1981, dated 1982).

Tested on: slow reacting substance of anaphylaxis (SRS-A)
Test: Inhibition of SRS-A induced contraction of guinea pig ileum
Type: cell-based
Conditions: Cavia porcellus, 0.25 h; compound concentration 5×10^-6 M; partially purified SRS-A from guinea pig lung at 40 μg/ml; isolated guinea pig ileum; read-out: percent antagonism of SRS-A induced contraction
Experimental: The SRS-A antagonist activity of the compounds of this invention is measured by the ability of the active medicament to inhibit SRS-A induced contraction of guinea pig ileum. In this test system, sections of ileum are resected from guinea pigs and placed in 5 ml. tissue baths containing a modified Tyrode's solution. One end of the tissue is fixed to a glass tissue holder, the other is connected to a force-displacement transducer and the tissue is placed under a tension of 500 mg. Isometric tissue contractions are recorded on a six channel polygraph. Baths are constantly aerated with 95% O2 -5% CO2. After a 20 minute stabilization period a concentration of the appropriate agonist which provides a contraction height of 60-80% of the maximum obtainable to that agonist (as determined from full sequential concentration-response curves in separate experiments) is added to the tissue bath and the response recorded. The procedure is repeated until reproducible responses are obtained. […] Percent inhibition produced by the test compound is calculated by subtracting the mean percentage change in control tissue from the mean percentage change in tissues exposed to the test compound. Additional compounds are then evaluated as long as the tissue remains reproducibly responsive to the agonist. […]

Compound `O=C(NS(=O)(=O)N1CCc2ccc(Cl)c(Cl)c2C1)N1CCc2ccc(Cl)c(Cl)c2C1` [Compound 1, N-(7,8-Dichloro-1,2,3,4-tetrahydroisoquinolin-2yl)Carbonyl-7,8-dichloro-1,2,3,4-tetrahydroisoquinoline-2-sulfonamide] has an inhibition at 5 µM of 46%.
